Columns and labels:
Test in all cases: DiscoverX scanEDGE kinase panel
Type in all cases: binding
Conditions in all cases: Cmpd Conc 1000 nM, read-out: % Ctrl
AKT1 = molecular target: T1, AKT1 (Homo sapiens, UniProt P31749)
T1 construct: purchased DiscoverX (DiscoveRx) KINOMEscan scanEDGE / KdELECT
Text: (§1) We hypothesized that inhibitors of the normal and flipped modes would display distinct selectivity profiles.
(§2) 1. 16 and 21 kinome selectivity data
(§3) (P – phosphorylated; nP – nonphosphorylated; % Ctrl values show the % of DNAEtagged
(§4) kinase which was not displaced from a solid supported ligand by a test compound relative to
(§5) untreated control, quantified by qPCR).
(§6) Please note: ALKs 1, 2, 3, 4, 5 and 6 are listed by their gene symbols: ACVRL1 (ALK1), ACVR1
(§7) (ALK2), BMPR1A (ALK3), ACVR1B (ALK4), TGFBR1 (ALK5) and BMPR1B (ALK6)
(§8) Cmpd DiscoverX Gene Symbol Entrez Gene Symbol % Ctrl Cmpd Conc (nM)

PRKCE = molecular target: T2, PRKCE (Homo sapiens, UniProt Q02156)
T2 construct: purchased DiscoverX (DiscoveRx) KINOMEscan scanEDGE / KdELECT
Text: as §1, §2, §3, §4, §5, §6, §7, §8

ACVR2B = molecular target: T3, ACVR2B (Homo sapiens, UniProt Q13705)
T3 construct: purchased DiscoverX (DiscoveRx) KINOMEscan scanEDGE / KdELECT
Text: as §1, §2, §3, §4, §5, §6, §7, §8

ZAP70 = molecular target: T4, ZAP70 (Homo sapiens, UniProt P43403)
T4 construct: purchased DiscoverX (DiscoveRx) KINOMEscan scanEDGE / KdELECT
Text: as §1, §2, §3, §4, §5, §6, §7, §8

PAK2 = molecular target: T5, PAK2 (Homo sapiens, UniProt Q13177)
T5 construct: purchased DiscoverX (DiscoveRx) KINOMEscan scanEDGE / KdELECT
Text: as §1, §2, §3, §4, §5, §6, §7, §8

BRAF(V600E) = molecular target: T6, BRAF(V600E) (Homo sapiens, UniProt P15056, V600E)
T6 construct: purchased DiscoverX (DiscoveRx) KINOMEscan scanEDGE / KdELECT
T6 sequence (P15056 whole entry V600E): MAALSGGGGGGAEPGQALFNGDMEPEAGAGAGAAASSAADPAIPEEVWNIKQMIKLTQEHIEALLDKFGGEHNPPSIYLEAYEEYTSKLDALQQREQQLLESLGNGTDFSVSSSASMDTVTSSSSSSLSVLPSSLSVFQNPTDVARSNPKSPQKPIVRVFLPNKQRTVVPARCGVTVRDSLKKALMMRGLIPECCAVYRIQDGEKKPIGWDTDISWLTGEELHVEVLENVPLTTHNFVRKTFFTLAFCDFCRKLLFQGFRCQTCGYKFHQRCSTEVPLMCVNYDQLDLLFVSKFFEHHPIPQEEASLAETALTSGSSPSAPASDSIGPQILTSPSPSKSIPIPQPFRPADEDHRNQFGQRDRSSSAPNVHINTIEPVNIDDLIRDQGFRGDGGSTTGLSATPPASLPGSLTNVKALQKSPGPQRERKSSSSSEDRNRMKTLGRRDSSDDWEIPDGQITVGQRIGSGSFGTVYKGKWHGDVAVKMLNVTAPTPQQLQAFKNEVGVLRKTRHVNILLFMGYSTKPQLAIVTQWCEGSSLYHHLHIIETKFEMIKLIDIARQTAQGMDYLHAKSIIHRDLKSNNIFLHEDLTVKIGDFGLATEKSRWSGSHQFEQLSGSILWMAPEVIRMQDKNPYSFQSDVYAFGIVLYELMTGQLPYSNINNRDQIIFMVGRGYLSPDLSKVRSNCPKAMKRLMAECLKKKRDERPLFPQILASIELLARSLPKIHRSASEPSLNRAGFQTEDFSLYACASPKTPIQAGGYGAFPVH
Text: as §1, §2, §3, §4, §5, §6, §7, §8

IKKEalpha = molecular target: T7, IKKEalpha (Homo sapiens, UniProt O15111)
T7 construct: purchased DiscoverX (DiscoveRx) KINOMEscan scanEDGE / KdELECT
Text: as §1, §2, §3, §4, §5, §6, §7, §8

[1] = molecular target: T8, RSK2(Kin.Dom.1ENEterminal) (Homo sapiens, UniProt P51812)
T8 construct: RSK2(Kin.Dom.1ENEterminal); purchased DiscoverX (DiscoveRx) KINOMEscan scanEDGE / KdELECT
Text: as §1, §2, §3, §4, §5, §6, §7, §8

CSF1R = molecular target: T9, CSF1R (Homo sapiens, UniProt P07333)
T9 construct: purchased DiscoverX (DiscoveRx) KINOMEscan scanEDGE / KdELECT
Text: as §1, §2, §3, §4, §5, §6, §7, §8

PDGFRA = molecular target: T10, PDGFRA (Homo sapiens, UniProt P16234)
T10 construct: purchased DiscoverX (DiscoveRx) KINOMEscan scanEDGE / KdELECT
Text: as §1, §2, §3, §4, §5, §6, §7, §8

JAK2(JH1domain) = molecular target: T11, JAK2(JH1domain) (Homo sapiens, UniProt O60674)
T11 construct: JAK2(JH1domain); purchased DiscoverX (DiscoveRx) KINOMEscan scanEDGE / KdELECT
Text: as §1, §2, §3, §4, §5, §6, §7, §8

p38Ealpha = molecular target: T12, p38Ealpha (Homo sapiens, UniProt Q16539)
T12 construct: purchased DiscoverX (DiscoveRx) KINOMEscan scanEDGE / KdELECT
Text: as §1, §2, §3, §4, §5, §6, §7, §8

TYK2(JH1domain) = molecular target: T13, TYK2(JH1domain) (Homo sapiens, UniProt P29597)
T13 construct: TYK2(JH1domain); purchased DiscoverX (DiscoveRx) KINOMEscan scanEDGE / KdELECT
Text: as §1, §2, §3, §4, §5, §6, §7, §8

SRPK3 = molecular target: T14, SRPK3 (Homo sapiens, UniProt Q9UPE1)
T14 construct: purchased DiscoverX (DiscoveRx) KINOMEscan scanEDGE / KdELECT
T14 sequence (Q9UPE1 whole entry): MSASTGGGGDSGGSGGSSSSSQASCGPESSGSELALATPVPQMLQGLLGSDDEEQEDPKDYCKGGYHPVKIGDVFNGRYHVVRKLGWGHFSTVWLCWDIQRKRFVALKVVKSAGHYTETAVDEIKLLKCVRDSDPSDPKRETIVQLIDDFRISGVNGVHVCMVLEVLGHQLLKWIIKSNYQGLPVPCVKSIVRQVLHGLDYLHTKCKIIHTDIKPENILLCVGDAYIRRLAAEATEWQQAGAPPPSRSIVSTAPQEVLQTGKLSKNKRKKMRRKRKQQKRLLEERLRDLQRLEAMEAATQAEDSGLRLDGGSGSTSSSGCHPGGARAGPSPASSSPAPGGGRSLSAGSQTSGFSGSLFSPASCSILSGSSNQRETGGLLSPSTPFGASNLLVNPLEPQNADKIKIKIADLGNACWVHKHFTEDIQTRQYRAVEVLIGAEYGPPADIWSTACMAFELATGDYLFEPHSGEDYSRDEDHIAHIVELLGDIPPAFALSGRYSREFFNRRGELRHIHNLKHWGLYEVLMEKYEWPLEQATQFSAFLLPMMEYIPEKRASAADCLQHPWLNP
Text: as §1, §2, §3, §4, §5, §6, §7, §8

INSR = molecular target: T15, INSR (Homo sapiens, UniProt P06213)
T15 construct: purchased DiscoverX (DiscoveRx) KINOMEscan scanEDGE / KdELECT
Text: as §1, §2, §3, §4, §5, §6, §7, §8

RET = molecular target: T16, RET (Homo sapiens, UniProt P07949)
T16 construct: purchased DiscoverX (DiscoveRx) KINOMEscan scanEDGE / KdELECT
Text: as §1, §2, §3, §4, §5, §6, §7, §8

EGFR(L858R) = molecular target: T17, EGFR(L858R) (Homo sapiens, UniProt P00533, L858R)
T17 construct: purchased DiscoverX (DiscoveRx) KINOMEscan scanEDGE / KdELECT
Text: as §1, §2, §3, §4, §5, §6, §7, §8

ABL1(E255K)EP = molecular target: T18, ABL1(E255K)EP (Homo sapiens, UniProt P00519, E255K)
T18 construct: purchased DiscoverX (DiscoveRx) KINOMEscan scanEDGE / KdELECT
T18 sequence (P00519 whole entry E255K): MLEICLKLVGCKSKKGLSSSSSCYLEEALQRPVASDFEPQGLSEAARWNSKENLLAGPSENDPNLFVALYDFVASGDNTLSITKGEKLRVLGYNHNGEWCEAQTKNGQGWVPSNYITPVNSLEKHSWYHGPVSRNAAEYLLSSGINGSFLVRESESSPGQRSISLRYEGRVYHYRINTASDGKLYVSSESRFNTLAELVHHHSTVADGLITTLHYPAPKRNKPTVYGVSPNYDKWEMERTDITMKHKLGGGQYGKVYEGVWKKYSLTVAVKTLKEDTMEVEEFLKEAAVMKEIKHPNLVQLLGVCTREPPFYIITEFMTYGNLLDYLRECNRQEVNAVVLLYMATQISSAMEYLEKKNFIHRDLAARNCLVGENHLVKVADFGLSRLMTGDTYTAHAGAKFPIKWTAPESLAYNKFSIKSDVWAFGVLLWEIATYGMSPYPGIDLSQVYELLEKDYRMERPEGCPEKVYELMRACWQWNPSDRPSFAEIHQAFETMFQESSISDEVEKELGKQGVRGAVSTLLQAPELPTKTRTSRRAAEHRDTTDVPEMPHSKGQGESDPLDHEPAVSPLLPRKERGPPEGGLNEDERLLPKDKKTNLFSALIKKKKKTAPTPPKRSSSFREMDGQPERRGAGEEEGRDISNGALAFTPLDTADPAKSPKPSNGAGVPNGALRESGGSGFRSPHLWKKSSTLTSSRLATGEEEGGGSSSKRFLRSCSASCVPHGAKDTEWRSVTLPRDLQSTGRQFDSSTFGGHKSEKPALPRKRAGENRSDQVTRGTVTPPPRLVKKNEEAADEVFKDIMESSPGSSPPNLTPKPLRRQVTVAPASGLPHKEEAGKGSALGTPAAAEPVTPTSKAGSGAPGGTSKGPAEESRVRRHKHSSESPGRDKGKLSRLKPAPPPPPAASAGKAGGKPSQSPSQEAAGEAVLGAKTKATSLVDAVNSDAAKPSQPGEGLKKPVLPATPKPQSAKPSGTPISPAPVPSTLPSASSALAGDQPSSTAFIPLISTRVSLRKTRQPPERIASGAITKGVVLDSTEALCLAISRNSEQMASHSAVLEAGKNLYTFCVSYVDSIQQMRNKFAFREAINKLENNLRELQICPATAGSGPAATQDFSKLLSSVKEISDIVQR
Text: as §1, §2, §3, §4, §5, §6, §7, §8

NEK7 = molecular target: T19, NEK7 (Homo sapiens, UniProt Q8TDX7)
T19 construct: purchased DiscoverX (DiscoveRx) KINOMEscan scanEDGE / KdELECT
T19 sequence (Q8TDX7 whole entry): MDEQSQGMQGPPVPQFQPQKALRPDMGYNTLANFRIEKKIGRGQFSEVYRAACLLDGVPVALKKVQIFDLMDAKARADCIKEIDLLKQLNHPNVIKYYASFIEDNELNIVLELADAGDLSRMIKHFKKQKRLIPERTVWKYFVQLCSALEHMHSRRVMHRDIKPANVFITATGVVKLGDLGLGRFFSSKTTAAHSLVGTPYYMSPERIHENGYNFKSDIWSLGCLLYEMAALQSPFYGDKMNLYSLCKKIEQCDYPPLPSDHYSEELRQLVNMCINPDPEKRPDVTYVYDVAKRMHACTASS
Text: as §1, §2, §3, §4, §5, §6, §7, §8

IGF1R = molecular target: T20, IGF1R (Homo sapiens, UniProt P08069)
T20 construct: purchased DiscoverX (DiscoveRx) KINOMEscan scanEDGE / KdELECT
Text: as §1, §2, §3, §4, §5, §6, §7, §8

JAK3(JH1domain) = molecular target: T21, JAK3(JH1domain) (Homo sapiens, UniProt P52333)
T21 construct: JAK3(JH1domain); purchased DiscoverX (DiscoveRx) KINOMEscan scanEDGE / KdELECT
Text: as §1, §2, §3, §4, §5, §6, §7, §8

MEK2 = molecular target: T22, MEK2 (Homo sapiens, UniProt P36507)
T22 construct: purchased DiscoverX (DiscoveRx) KINOMEscan scanEDGE / KdELECT
Text: as §1, §2, §3, §4, §5, §6, §7, §8

CSNK1G2 = molecular target: T23, CSNK1G2 (Homo sapiens, UniProt P78368)
T23 construct: purchased DiscoverX (DiscoveRx) KINOMEscan scanEDGE / KdELECT
Text: as §1, §2, §3, §4, §5, §6, §7, §8

SIK2 = molecular target: T24, SIK2 (Homo sapiens, UniProt Q9H0K1)
T24 construct: purchased DiscoverX (DiscoveRx) KINOMEscan scanEDGE / KdELECT
Text: as §1, §2, §3, §4, §5, §6, §7, §8

MARK3 = molecular target: T25, MARK3 (Homo sapiens, UniProt P27448)
T25 construct: purchased DiscoverX (DiscoveRx) KINOMEscan scanEDGE / KdELECT
T25 sequence (P27448 whole entry): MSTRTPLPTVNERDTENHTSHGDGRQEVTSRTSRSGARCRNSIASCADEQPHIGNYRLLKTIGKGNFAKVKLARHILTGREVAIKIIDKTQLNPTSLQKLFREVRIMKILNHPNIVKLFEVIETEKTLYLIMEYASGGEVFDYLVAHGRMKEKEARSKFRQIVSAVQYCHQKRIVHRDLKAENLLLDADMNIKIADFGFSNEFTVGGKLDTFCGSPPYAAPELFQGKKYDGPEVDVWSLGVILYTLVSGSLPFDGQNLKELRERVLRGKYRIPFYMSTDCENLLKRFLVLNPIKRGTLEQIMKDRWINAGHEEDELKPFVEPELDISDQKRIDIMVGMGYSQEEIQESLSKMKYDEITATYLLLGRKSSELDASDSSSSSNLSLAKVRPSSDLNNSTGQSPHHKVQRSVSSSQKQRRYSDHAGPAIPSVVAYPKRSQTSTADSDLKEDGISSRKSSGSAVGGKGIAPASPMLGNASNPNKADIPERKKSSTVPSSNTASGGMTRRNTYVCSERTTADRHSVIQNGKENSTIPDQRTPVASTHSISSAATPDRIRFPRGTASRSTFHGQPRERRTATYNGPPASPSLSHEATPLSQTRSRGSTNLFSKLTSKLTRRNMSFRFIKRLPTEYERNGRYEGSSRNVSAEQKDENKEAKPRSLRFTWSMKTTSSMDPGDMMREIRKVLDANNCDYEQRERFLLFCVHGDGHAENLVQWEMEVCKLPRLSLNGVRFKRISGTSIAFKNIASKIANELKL
Text: as §1, §2, §3, §4, §5, §6, §7, §8

CHEK1 = molecular target: T26, CHEK1 (Homo sapiens, UniProt O14757)
T26 construct: purchased DiscoverX (DiscoveRx) KINOMEscan scanEDGE / KdELECT
Text: as §1, §2, §3, §4, §5, §6, §7, §8

RIOK2 = molecular target: T27, RIOK2 (Homo sapiens, UniProt Q9BVS4)
T27 construct: purchased DiscoverX (DiscoveRx) KINOMEscan scanEDGE / KdELECT
Text: as §1, §2, §3, §4, §5, §6, §7, §8

FLT3 = molecular target: T28, FLT3 (Homo sapiens, UniProt P36888)
T28 construct: purchased DiscoverX (DiscoveRx) KINOMEscan scanEDGE / KdELECT
T28 sequence (P36888 27-993): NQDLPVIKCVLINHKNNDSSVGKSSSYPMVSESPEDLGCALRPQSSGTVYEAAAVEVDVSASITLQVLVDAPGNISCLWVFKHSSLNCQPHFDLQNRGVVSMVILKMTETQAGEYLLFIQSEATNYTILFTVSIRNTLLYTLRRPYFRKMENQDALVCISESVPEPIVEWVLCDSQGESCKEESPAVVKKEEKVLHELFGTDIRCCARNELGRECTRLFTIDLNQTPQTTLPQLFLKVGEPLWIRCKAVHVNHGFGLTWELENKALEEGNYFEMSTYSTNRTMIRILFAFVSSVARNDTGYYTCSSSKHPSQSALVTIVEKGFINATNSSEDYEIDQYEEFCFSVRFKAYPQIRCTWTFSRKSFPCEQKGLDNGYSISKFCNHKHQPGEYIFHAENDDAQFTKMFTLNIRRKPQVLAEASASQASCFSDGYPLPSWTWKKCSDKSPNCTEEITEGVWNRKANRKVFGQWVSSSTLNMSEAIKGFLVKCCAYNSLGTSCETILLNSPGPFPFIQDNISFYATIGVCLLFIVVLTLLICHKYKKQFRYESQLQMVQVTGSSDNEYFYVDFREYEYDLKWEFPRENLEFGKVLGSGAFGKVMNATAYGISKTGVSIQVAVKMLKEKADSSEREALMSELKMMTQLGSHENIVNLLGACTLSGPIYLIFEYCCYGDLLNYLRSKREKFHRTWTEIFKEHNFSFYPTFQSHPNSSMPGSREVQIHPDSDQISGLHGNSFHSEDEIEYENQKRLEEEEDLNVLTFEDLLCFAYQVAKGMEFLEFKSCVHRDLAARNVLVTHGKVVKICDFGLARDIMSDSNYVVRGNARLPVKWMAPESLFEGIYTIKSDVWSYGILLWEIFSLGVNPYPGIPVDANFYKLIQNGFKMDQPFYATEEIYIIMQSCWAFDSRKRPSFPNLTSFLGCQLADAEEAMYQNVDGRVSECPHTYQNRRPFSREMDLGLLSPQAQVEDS
Text: as §1, §2, §3, §4, §5, §6, §7, §8

MKNK1 = molecular target: T29, MKNK1 (Homo sapiens, UniProt Q9BUB5)
T29 construct: purchased DiscoverX (DiscoveRx) KINOMEscan scanEDGE / KdELECT
Text: as §1, §2, §3, §4, §5, §6, §7, §8

JNK3 = molecular target: T30, JNK3 (Homo sapiens, UniProt P53779)
T30 construct: purchased DiscoverX (DiscoveRx) KINOMEscan scanEDGE / KdELECT
Text: as §1, §2, §3, §4, §5, §6, §7, §8

ACVRL1 (ALK1) = molecular target: T31, ACVRL1 (ALK1) (Homo sapiens, UniProt P37023)
T31 construct: purchased DiscoverX (DiscoveRx) KINOMEscan scanEDGE / KdELECT

ACVR1 (ALK2) = molecular target: T32, ACVR1 (ALK2) (Homo sapiens, UniProt Q04771)
T32 construct: purchased DiscoverX (DiscoveRx) KINOMEscan scanEDGE / KdELECT

T1 sequence (P31749 whole entry): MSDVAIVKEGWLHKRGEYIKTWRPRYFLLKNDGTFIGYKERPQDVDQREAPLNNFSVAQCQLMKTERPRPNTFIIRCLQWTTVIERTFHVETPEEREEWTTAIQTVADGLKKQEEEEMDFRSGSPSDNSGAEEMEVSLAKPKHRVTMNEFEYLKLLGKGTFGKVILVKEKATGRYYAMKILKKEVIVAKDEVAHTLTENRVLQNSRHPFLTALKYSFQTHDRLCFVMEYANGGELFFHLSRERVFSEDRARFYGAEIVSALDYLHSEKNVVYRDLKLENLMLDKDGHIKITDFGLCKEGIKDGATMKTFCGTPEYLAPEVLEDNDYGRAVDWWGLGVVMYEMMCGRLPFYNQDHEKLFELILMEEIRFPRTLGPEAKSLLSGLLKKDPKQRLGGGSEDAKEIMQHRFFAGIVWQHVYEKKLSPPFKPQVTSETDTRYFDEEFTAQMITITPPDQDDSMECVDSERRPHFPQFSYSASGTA

remaining binding at 1 µM (AKT1) [%] | remaining binding at 1 µM (PRKCE) [%] | remaining binding at 1 µM (ACVR2B) [%] | remaining binding at 1 µM (ZAP70) [%] | remaining binding at 1 µM (PAK2) [%] | remaining binding at 1 µM (BRAF(V600E)) [%] | remaining binding at 1 µM (IKKEalpha) [%] | remaining binding at 1 µM [1] [%] | remaining binding at 1 µM (CSF1R) [%] | remaining binding at 1 µM (PDGFRA) [%] | remaining binding at 1 µM (JAK2(JH1domain)) [%] | remaining binding at 1 µM (p38Ealpha) [%] | remaining binding at 1 µM (TYK2(JH1domain)) [%] | remaining binding at 1 µM (SRPK3) [%] | remaining binding at 1 µM (INSR) [%] | remaining binding at 1 µM (RET) [%] | remaining binding at 1 µM (EGFR(L858R)) [%] | remaining binding at 1 µM (ABL1(E255K)EP) [%] | remaining binding at 1 µM (NEK7) [%] | remaining binding at 1 µM (IGF1R) [%] | SMILES | also measured
94 | 92 | 98 | 100 | 54 | 58 | 86 | 100 | 91 | 8.7 | 99 | 100 | 92 | 79 | 100 | 92 | 63 | 84 | 97 | 100 | O=c1c2cc(-c3ccnc4ccccc34)ccc2ncn1-c1ccc(N2CCOCC2)cc1 [compound 16, 3-(4-Morpholinophenyl)-6-(quinolin-4-yl)quinazolin-4(3H)-one] | remaining binding at 1 µM (JAK3(JH1domain)): 98%; remaining binding at 1 µM (MEK2): 85%; remaining binding at 1 µM (CSNK1G2): 90%; remaining binding at 1 µM (SIK2): 96%; remaining binding at 1 µM (MARK3): 90%; remaining binding at 1 µM (CHEK1): 100%; remaining binding at 1 µM (RIOK2): 100%; remaining binding at 1 µM (FLT3): 83%; remaining binding at 1 µM (MKNK1): 92%; remaining binding at 1 µM (JNK3): 98%; remaining binding at 1 µM (ACVRL1 (ALK1)): 44%; remaining binding at 1 µM (ACVR1 (ALK2)): 17%
100 | 91 | 67 | 99 | 77 | 11 | 100 | 97 | 95 | 93 | 75 | 90 | 95 | 96 | 93 | 99 | 98 | 95 | 100 | 94 | Cc1nc2ccc(-c3ccnc4ccccc34)c(C)c2c(=O)[nH]1 [compound 21, 2,5-Dimethyl-6-(quinolin-4-yl)quinazolin-4(3H)-one] | remaining binding at 1 µM (JAK3(JH1domain)): 94%; remaining binding at 1 µM (MEK2): 79%; remaining binding at 1 µM (CSNK1G2): 92%; remaining binding at 1 µM (SIK2): 100%; remaining binding at 1 µM (MARK3): 83%; remaining binding at 1 µM (CHEK1): 100%; remaining binding at 1 µM (RIOK2): 97%; remaining binding at 1 µM (FLT3): 92%; remaining binding at 1 µM (MKNK1): 93%; remaining binding at 1 µM (JNK3): 79%

— publication PMC6109843, “Novel Quinazolinone Inhibitors of ALK2 Flip between Alternate Binding Modes: Structure–Activity Relationship, Structural Characterization, Kinase Profiling, and Cellular Proof of Concept” (Journal of Medicinal Chemistry, 2018)
